Patent US7625926B2, “P-glycoprotein inhibitor, method for preparing the same and pharmaceutical composition comprising the same” (Hanmi Pharm. Co., Ltd, priority 2003, dated 2009)

System: MCF-7/Dox cell, which is MCF-7 expressing p-glycoprotein
Conditions: enhancement of anticancer activity of paclitaxel against MCF7/Dox; ED50 of paclitaxel alone / ED50 with 50 nM test compound
Experimental: The cells were subcultured in 5% FBS (fetal bovine serum)/RPMI1640 medium supplemented with glutamine 2 mmol, sodium bicarbonate 3.7 g/L and gentamicin 10 mg/L at 37° C. in 5% CO2 incubator under 100% humidity, and collected using a 0.25% trypsin solution containing 3 mM 1,2-cyclohenxandiamine tetraacetic acid.
The collected cells were plated on a 96 well flat-bottomed plate at a density of 2×10^3 cells/well, and incubated in the same medium for 24 hours. Paclitaxel, an anticancer agent, was diluted with the same medium to obtain 10^−11˜10^−6 M test solutions. […] After incubating for 72 hours, the culture medium was removed, each well was treated with 10% trichloroacetic acid for 1 hour to fix the cells, washed with water, and dried at room temperature. After adding a dyeing solution containing 1% acetic acid with 0.4% SRB (sulforhodamine B) thereto, the wells were kept at room temperature for 30 min, and washed with 1% acetic acid to remove remaining SRB. […] Also, the enhancement of the anticancer activity of paclitaxel against MCF7/Dox (resistant cancer cells) was measured by determining ED^PAC50/ED50, wherein ED^PAC50 is the value determined for the case of paclitaxel alone.

In order of rising “ED50^PAC/ED50” value:
1. COc1cc2c(cc1OC)CN(CCc1ccc(-n3nnc(-c4cc(OC)c(OC)cc4NC(=O)c4nccc5ccccc45)n3)cc1)CC2 [Example 5, isoquinoline-1-carboxylic acid [2-(2-{4-[2-(6,7-dimethoxy-3,4-dihydro-1H-isoquinolin-2-yl)-ethyl]-phenyl}-2H-tetrazol-5-yl)-4,5-dimethoxy-phenyl]-amide]  1.8
2. COc1cc2c(cc1OC)CN(CCc1ccc(-n3nnc(-c4cc(OC)c(OC)cc4NC(=O)c4ccc5ccccc5c4)n3)cc1)CC2 [Example 14, naphthalene-2-carboxylic acid [2-(2-{4-[2-(6,7-dimethoxy-3,4-dihydro-1H-isoquinolin-2-yl)-ethyl]-phenyl}-2H-tetrazol-5-yl)-4,5-dimethoxy-phenyl]-amide]  2.6
3. COc1cc2c(cc1OC)CN(CCc1ccc(-n3nnc(-c4cc(OC)c(OC)cc4NC(=O)c4ccc5ccccc5n4)n3)cc1)CC2 [Example 2, quinoline-2-carboxylic acid [2-(2-{4-[2-(6,7-dimethoxy-3,4-dihydro-1H-isoquinolin-2-yl)-ethyl]-phenyl}-2H-tetrazol-5-yl)-4,5-dimethoxy-phenyl]-amide]  2.7
4. COc1cc2c(cc1OC)CN(CCc1ccc(-n3nnc(-c4cc(OC)c(OC)cc4NC(=O)c4cccnc4)n3)cc1)CC2 [Example 10, N-[2-(2-{4-[2-(6,7-dimethoxy-3,4-dihydro-1H-isoquinolin-2-yl)-ethyl]-phenyl}-2H-tetrazol-5-yl)-4,5-dimethoxy-phenyl]-nicotinamide]  3.0
5. COc1cc2c(cc1OC)CN(CCc1ccc(-n3nnc(-c4cc(OC)c(OC)cc4NC(=O)c4cnccn4)n3)cc1)CC2 [Example 12, pyrazine-2-carboxylic acid [2-(2-{4-[2-(6,7-dimethoxy-3,4-dihydro-1H-isoquinolin-2-yl)-ethyl]-phenyl}-2H-tetrazol-5-yl)-4,5-dimethoxy-phenyl]-amide]  3.0
6. COc1cc2c(cc1OC)CN(CCc1ccc(-n3nnc(-c4cc(OC)c(OC)cc4NC(=O)c4ccccn4)n3)cc1)CC2 [Example 9, pyridine-2-carboxylic acid [2-(2-{4-[2-(6,7-dimethoxy-3,4-dihydro-1H-isoquinolin-2-yl)-ethyl]-phenyl}-2H-tetrazol-5-yl)-4,5-dimethoxy-phenyl]-amide]  3.1
7. COc1cc2c(cc1OC)CN(CCc1ccc(-n3nnc(-c4cc(OC)c(OC)cc4NC(=O)c4ccncc4)n3)cc1)CC2 [Example 11, N-[2-(2-{4-[2-(6,7-dimethoxy-3,4-dihydro-1H-isoquinolin-2-yl)-ethyl]-phenyl}-2H-tetrazol-5-yl)-4,5-dimethoxy-phenyl]-isonicotinamide]  3.2
8. COc1cc2c(cc1OC)CN(CCc1ccc(-n3nnc(-c4cc(OC)c(OC)cc4NC(=O)c4ccnc5ccccc45)n3)cc1)CC2 [Example 6, quinoline-4-carboxylic acid [2-(2-{4-[2-(6,7-dimethoxy-3,4-dihydro-1H-isoquinolin-2-yl)-ethyl]-phenyl}-2H-tetrazol-5-yl)-4,5-dimethoxy-phenyl]-amide]  3.3
9. COc1cc2c(cc1OC)CN(CCc1ccc(-n3nnc(-c4cc(OC)c(OC)cc4NC(=O)c4cc(OC)c5ccccc5n4)n3)cc1)CC2 [Example 7, 4-methoxy-quinoline-2-carboxylic acid [2-(2-{4-[2-(6,7-dimethoxy-3,4-dihydro-1H-isoquinolin-2-yl)-ethyl]-phenyl}-2H-tetrazol-5-yl)-4,5-methoxy-phenyl]-amide]  3.3
10. COc1cc2c(cc1OC)CN(CCc1ccc(-n3nnc(-c4cc(OC)c(OC)cc4NC(=O)c4ccccc4)n3)cc1)CC2 [Example 13, N-[2-(2-{4-[2-(6,7-dimethoxy-3,4-dihydro-1H-isoquinolin-2-yl)-ethyl]-phenyl}-2H-tetrazol-5-yl)-4,5-dimethoxy-phenyl]-benzamide]  3.4
11. COc1cc2c(cc1OC)CN(CCc1ccc(-n3nnc(-c4cc(OC)c(OC)cc4NC(=O)c4cc5ccccc5cn4)n3)cc1)CC2 [Example 3, isoquinoline-3-carboxylic acid [2-(2-{4-[2-(6,7-dimethoxy-3,4-dihydro-1H-isoquinolin-2-yl)-ethyl]-phenyl}-2H-tetrazol-5-yl)-4,5-dimethoxy-phenyl]-amide]  3.5
12. COc1cc2c(cc1OC)CN(CCc1ccc(-n3nnc(-c4cc(OC)c(OC)cc4NC(=O)c4ccoc4)n3)cc1)CC2 [Example 20, furan-3-carboxylic acid [2-(2-{4-[2-(6,7-dimethoxy-3,4-dihydro-1H-isoquinolin-2-yl)-ethyl]-phenyl}-2H-tetrazol-5-yl)-4,5-dimethoxy-phenyl]-amide]  3.5
13. COc1cc2c(cc1OC)CN(CCc1ccc(-n3nnc(-c4cc(OC)c(OC)cc4NC(=O)c4ccc(F)c(F)c4)n3)cc1)CC2 [Example 18, N-[2-(2-{4-[2-(6,7-dimethoxy-3,4-dihydro-1H-isoquinolin-2-yl)-ethyl]-phenyl}-2H-tetrazol-5-yl)-4,5-dimethoxy-phenyl]-3,4-difluoro-benzamide]  3.7
14. COc1cc2c(cc1OC)CN(CCc1ccc(-n3nnc(-c4cc(OC)c(OC)cc4NC(=O)c4ccc(F)cc4)n3)cc1)CC2 [Example 17, N-[2-(2-{4-[2-(6,7-dimethoxy-3,4-dihydro-1H-isoquinolin-2-yl)-ethyl]-phenyl}-2H-tetrazol-5-yl)-4,5-dimethoxy-phenyl]-4-fluoro-benzamide]  4.0
15. COc1cc2c(cc1OC)CN(CCc1ccc(-n3nnc(-c4cc(OC)c(OC)cc4NC(=O)c4ccccc4F)n3)cc1)CC2 [Example 15]  4.1
16. COc1cc2c(cc1OC)CN(CCc1ccc(-n3nnc(-c4cc(OC)c(OC)cc4NC(=O)c4cccc5cccnc45)n3)cc1)CC2 [Example 4, quinoline-8-carboxylic acid [2-(2-{4-[2-(6,7-dimethoxy-3,4-dihydro-1H-isoquinolin-2-yl)-ethyl]-phenyl}-2H-tetrazol-5-yl)-4,5-dimethoxy-phenyl]-amide]  4.3
17. COc1cc2c(cc1OC)CN(CCc1ccc(-n3nnc(-c4cc(OC)c(OC)cc4NC(=O)c4ccsc4)n3)cc1)CC2 [Example 19, thiophene-3-carboxylic acid [2-(2-{4-[2-(6,7-dimethoxy-3,4-dihydro-1H-isoquinolin-2-yl)-ethyl]-phenyl}-2H-tetrazol-5-yl)-4,5-dimethoxy-phenyl]-amide]  4.5
18. COc1cc2c(cc1OC)CN(CCc1ccc(-n3nnc(-c4cc(OC)c(OC)cc4NC(=O)c4cccc(F)c4)n3)cc1)CC2 [Example 16, N-[2-(2-{4-[2-(6,7-dimethoxy-3,4-dihydro-1H-isoquinolin-2-yl)-ethyl]-phenyl}-2H-tetrazol-5-yl)-4,5-dimethoxy-phenyl]-3-fluoro-benzamide]  6.7
19. COc1cc2c(cc1OC)CN(CCc1ccc(-n3nnc(-c4cc(OC)c(OC)cc4NC(=O)c4cnc5ccccc5n4)n3)cc1)CC2 [Example 8, quinoxaline-2-carboxylic acid [2-(2-{4-[2-(6,7-dimethoxy-3,4-dihydro-1H-isoquinolin-2-yl)-ethyl]-phenyl}-2H-tetrazol-5-yl)-4,5-dimethoxy-phenyl]-amide]  22.0
20. COc1cc2c(cc1OC)CN(CCc1ccc(-n3nnc(-c4cc(OC)c(OC)cc4NC(=O)c4cnnc5ccccc45)n3)cc1)CC2 [Example 26, cinoline-4-carboxylic acid [2-(2-{4-[2-(6,7-dimethoxy-3,4-dihydro-1H-isoquinolin-2-yl)-ethyl]-phenyl}-2H-tetrazol-5-yl)-4,5-dimethoxy-phenyl]-amide]  24.0
21. COc1cc2c(cc1OC)CN(CCc1ccc(-n3nnc(-c4cc(OC)c(OC)cc4NC(=O)c4cc(=O)c5cc(Br)ccc5o4)n3)cc1)CC2 [Example 25, 6-bromo-4-oxo-4H-chromene-2-carboxylic acid [2-(2-{4-[2-(6,7-dimethoxy-3,4-dihydro-1H-isoquinolin-2-yl)-ethyl]-phenyl}-2H-tetrazol-5-yl)-4,5-dimethoxy-phenyl]-amide]  28.6
22. COc1cc2c(cc1OC)CN(CCc1ccc(-n3nnc(-c4cc(OC)c(OC)cc4NC(=O)c4cc(=O)c5cc(F)ccc5o4)n3)cc1)CC2 [Example 24, 6-fluoro-4-oxo-4H-chromene-2-carboxylic acid [2-(2-{4-[2-(6,7-dimethoxy-3,4-dihydro-1H-isoquinolin-2-yl)-ethyl]-phenyl}-2H-tetrazol-5-yl)-4,5-dimethoxy-phenyl]-amide]  39.3
23. COc1cc2c(cc1OC)CN(CCc1ccc(-n3nnc(-c4cc(OC)c(OC)cc4NC(=O)c4cc(=O)c5c(OC)cccc5o4)n3)cc1)CC2 [Example 23, 5-methoxy-4-oxo-4H-chromene-2-carboxylic acid [2-(2-{4-[2-(6,7-dimethoxy-3,4-dihydro-1H-isoquinolin-2-yl)-ethyl]-phenyl}-2H-tetrazol-5-yl)-4,5-dimethoxy-phenyl]-amide]  49.9
24. COc1cc2c(cc1OC)CN(CCc1ccc(-n3nnc(-c4cc(OC)c(OC)cc4NC(=O)c4cc(=O)c5ccccc5o4)n3)cc1)CC2 [Example 21, 4-oxo-4H-chromen-2-carboxylic acid [2-(2-{4-[2-(6,7-dimethoxy-3,4-dihydro-1H-isoquinolin-2-yl)-ethyl]-phenyl}-2H-tetrazol-5-yl)-4,5-dimethoxy-phenyl]-amide]  60.1
25. COc1cc2c(cc1OC)CN(CCc1ccc(-n3nnc(-c4cc(OC)c(OC)cc4NC(=O)c4cc(=O)c5cc(C)ccc5o4)n3)cc1)CC2 [Example 22, 6-methyl-4-oxo-4H-chromene-2-carboxylic acid [2-(2-{4-[2-(6,7-dimethoxy-3,4-dihydro-1H-isoquinolin-2-yl)-ethyl]-phenyl}-2H-tetrazol-5-yl)-4,5-dimethoxy-phenyl]-amide]  73.4
